Reference: EP3763715A1, “HARRINGTONINES SALTS, IN PARTICULAR RETINOATES, THEIR PROCESS OF PREPARATION AND THEIR USES IN THE TREATMENT OF LEUKEMIAS, CANCERS, AUTOIMMUNE, SKIN, ALZHEIMER'S AND INFLAMMATORY BOWEL DISEASES AND VIRAL INFECTIONS, COMBINED WITH MYELOPOIESIS STIMULATING AGENTS” (Robin, Jean-Pierre, priority 2019, dated 2021)

Assays:
Swiss nu/nu mice = test: Toxicity seen in mice bearing MDA-MB-468 xenografts (in vivo efficacy study); details: 1 mg/kg, subcutaneously, bi-daily, mice with MDA-MB-468 xenografts; all mice died after only a few days; preliminary experiment, data not shown
Method: The experiments were conducted according to the Guide for the Care and Use of Laboratory Animals published by the US National Institutes of Health (NIH Publication n°85-23, revised 1996) and approved by the Ethic Committee of Clermont-Ferrand, France. All mouse studies were conducted in the animal facility of the INSERM U1240. Six weeks old Swiss nu/nu mice were purchased from Charles River Laboratories France and housed in standard conditions (n=5 per cage on ventilated racks, at 21-24 °C, 60% humidity, 12 h light/12 h dark cycle) with ad libitum access to irradiated food and water. […]
For assessment of HHT toxicity, groups of 6 mice were injected with sterile saline or 1, 2, 4 or 8 mg/kg of the drug, subcutaneously, bi-daily, over 7 days. […] The number of live animals was determined at days 4, 8 and 10, after treatment initiation.
For evaluation of HHT efficacy in vivo, when xenografts reached a volume of 200±20 mm^3, mice were randomized into the control or the treated group. […] Tumor size was non-invasively assessed using a digital caliper on days 3, 6, 8 and 10 after treatment initiation. Tumor volume was calculated using the following formula: V=(length×width^2)/2.

[1] = Solubility determination in water; format: physicochemical; details: 25° C., semi-quantitative
Method: Solubility in water at 25° C. was measured semi-quantitatively at a threshold of 5 g per 100 mL. All the homoharringtonine salts described in the below examples, unless otherwise stated, are soluble at this threshold. Homoharringtonine base itself is soluble at a threshold lower than 0.1 g per mL.

K562 cell line = test: Testing on K562 leukemia cell line (MTT cytotoxicity); format: cell-based, human; details: K562 cells, 72 h incubation, preliminary screening, read-out: K562 (CML) IC50
Method: (§1) Retinoates of harringtonines described in this invention were tested on K562 cell line which is derived from the pleural effusion of a person with chronic myelogenous leukemia (CML, bcr-abl positive) in terminal blast crises (Lozzio and Lozzio, Blood, 1975, p321). The cell line was purchased from ATCC (American Tissue Culture Collection) and grown in RPMI medium supplemented with 10% heat-inactivated fetal calf serum, 2 mmol/L glutamine, […] penicillin and […] streptomycin. All tested products were initially dissolved in 2N HCl (pH=2) (alkaloid base) or in aqueous solvent (salt) or in DMSO (retinoids), supplemented with ultrasound treatment during 1 h. Working concentrations were made by dilution in culture medium (pH 7). Cells in exponential growth phase were placed into 96-microwell plates in concentration 3x10^4/mL (total volume 200 µL/well) and incubated with drugs for 72 h at 37° C. in 5% CO2 humidified atmosphere. Following incubation, 28 µL of MTT 3-(4,5 dimethylthiazol-2-yl)-2,5 tetrazolium bromide] dye solution (Sigma, St. Louis, Mo.) was added to each well. During the following 6 h of incubation at 37° C., the purple formazan product was formed by conversion of the yellow MTT salt in the mitochondria of the viable cells. The resulting precipitate was dissolved in DMSO and the amount of converted MTT was quantified in an ELISA reader (MR 5000, Dynatech). Each product was tested in triplicate (3x8 wells). Every test contained at least one plate with HHT as control, added in the same concentration as the tested products.

HL-60 cell line = test: Testing on HL-60 leukemia cell line (MTT cytotoxicity); format: cell-based, human; details: HL-60 cells, medium with 20% fetal bovine serum, preliminary screening, read-out: HL60 (APL) IC50
Method: as §1
Retinoates of harringtonines described in this invention were tested on HL-60 cell line, derived from acute promyelocytic leukemia (APL) cells. HL-60 is a promyelocytic cell line derived by S.J. Collins, et al. (Proc. Natl. Acad. Sci. USA 1978 p2458). Peripheral blood leukocytes were obtained by leukopheresis from a person with APL (Gallagher R, et al. Blood 1978, p713) The cell line was purchased from ATCC (American Tissue Culture Collection) and the base growth medium was also completed with fetal bovine serum but at a final concentration of 20%, otherwise the same method than the one of example 10 was used.
Preliminary screening using this tumor cell lines are gathered in table 1.

MDA-MB-468 = test: Testing on breast cancer cell lines, sulforhodamine B (SRB) cell viability assay; format: cell-based, human; details: MDA-MB-468 breast cancer cells, preliminary screening, read-out: M DA-MB-468 (BC) IC50
Method: Operating Procedure were performed as described in the recent paper of Yakhni et al [Yakhni AM J CANCER RES 2019; 9(5) in press "Homoharringtonine, on approved anti-leukemia drug, suppresses triple negative breast cancer growth through a rapid reduction of anti-apoptotic protein abundance"]
The cell lines used in this study were MDA-MB-231 (ATCC® HTB-26™), MDA-MB-468 (ATCC® HTB-132™), MDA-MB-157 (ATCC® HTB-24™) and CAL-51. Those lines were chosen to represent the BRCA1/2 non-mutated TNBC transcriptomic subtypes, currently most in need of efficacious treatment due to lower sensibility of BRCA1 wild-type TNBC to the DNA-damaging chemotherapy (Masuda et al., Clin Cancer Res. 2013, p5533; Jiang et al., PLoS Med. 2016, pe1002193; Park et al. ESMO Open. 2018, pe000357). CAL-51 line represents the mesenchymal transcriptomic subtype whereas MDA-MB-157 and MDA-MB-231 represent the mesenchymal stem-like subtype (Lehmann et al. J Clin Invest. 2011, p2750). MDA-MB-468 was used as a model of aggressive, PTEN-negative TNBC, with hyperactivated EGFR signaling pathway due to EGFR amplification (Filmus et al., Biochem Biophys Res Commun. 1985, p898). MDA-MB-468 transcriptome classifies it into the basal-like 1 subtype (49). The MDA lines were purchased from the American Type Culture Collection (ATCC, Manassas, VA, USA). The CAL-51 was kindly provided by Dr Gerard Milano, from the Centre Antoine Lacassagne, Nice, France, where the line has been established (Gioanni et al., Br J Cancer 1990, p8). After initial expansion, the cell line stock vials were conserved, in liquid nitrogen, at the Biological Resource Center of Jean Perrin Comprehensive Cancer Center (biobank ID BB-0033-00075, Clermont-Ferrand, France). The MDA cell lines were cultured in the Leibovitz L-15 medium, whereas CAL-51 line was maintained in DMEM (both media from Invitrogen Life Technologies, Carlsbad, CA, USA). The media were supplemented with 10% heat-inactivated fetal bovine serum and […] gentamicin. CAL-51 line was kept at 37°C, in a humidified atmosphere with 5% CO2; the MDA lines were kept under the same conditions, however, without CO2, in a free gas exchange with atmospheric air. All cell lines were maintained in monolayer culture, in the sub-confluent status, with no more 30 passages of the cells thawed from the stock vial.
Homoharringtonine was supplied by LeukePharma Inc. (Houston, TX, USA) as water-soluble, crystalline tartaric acid salt. Initial stock solution of HHT-tartrate was prepared at 10 mM in sterile deionized water, aliquoted and kept at -80°C. For each experiment, a fresh HHT solution was prepared by dissolving the HHT stock in phosphate-buffered saline (PBS, GIBCO™, Invitrogen, Cergy-Pontoise, France).
Cell viability was assessed using the sulforhodamine B (SRB) assay (Sigma-Aldrich, St Louis, MO, USA) according to the method described by Vichai and Kirtikara (Nat Protoc. 2006, p1112). Cells were seeded in 96-well plates, at 5x10^3 or 1x10^3 cells/well (the MDA cell lines and CAL-51, respectively), left overnight to adhere and then treated with growing concentrations of HHT for 24h, 48h or 72h. After incubation with the drug, cells were washed twice with PBS and left for 72 h in the corresponding complete culture medium. Then the cells were fixed with trichloroacetic acid (final concentration 10%) at 4°C for 1 h, followed with plate washing with water five times, air drying and staining with 0.4% SRB dissolved in 1% acetic acid, at room temperature, for 30 min. The plates were subsequently washed four times with 1% acetic acid to remove unbound stain. To solubilize the protein-bound dye, 10 mM Tris base solution was added to each well. The cell viability, estimated through the present protein biomass, was determined by measuring optical density of the dye, using a spectrophotometer at wavelength of 540 nm (BMG Labtech, Ortenberg, Germany).
Preliminary screening using these tumor cell lines are gathered in table 1.

[2] = tested on: multidrug-resistant cell lines; details: greater than that of HHT; cited from earlier work

Compound: COC(=O)C[C@](O)(CCCC(C)(C)O)C(=O)O[C@@H]1C(OC)=C[C@]23CCCN2CCc2cc4c(cc2[C@H]13)OCO4 [HHT, Homoharringtonine]
- toxicity for the animals (Swiss nu/nu mice): too toxic

Compound: COC(=O)C[C@](O)(CCCC(C)(C)O)C(=O)O[C@@H]1C(OC)=C[C@]23CCCN2CCc2cc4c(cc2[C@H]13)OCO4 [Homoharringtonine base, Homoharringtonine]
- solubility [1]: < 100 mg/mL

Compound: COC(=O)CC(O)(CCCC(C)(C)O)C(=O)O[C@@H]1C(OC)=C[C@]23CCCN2CCc2cc4c(cc2[C@H]13)OCO4.O=C(O)c1ccc(-c2ccc3cc(O)c(C45CC6CC(CC(C6)C4)C5)cc3c2)cc1 (stereo partly drawn) [Example 12, Butanedioic acid, 2-hydroxy-2-(4-hydroxy-4-methylpentyl)-, 1-[(1S,3aR,14bS)-1,5,6,8,9,14b-hexahydro-2-methoxy-4H-cyclopenta[a][1,3]dioxolo[4,5-h]pyrrolo[2,1-b][3]benzazepin-1-yl]4-methyl ester, 4-(6-Hydroxy-7-tricyclo[3.3.1.1^3,7]dec-1-yl-2-naphthalenyl)benzoate]
- IC50 (K562 cell line): < 50 nM
- IC50 (HL-60 cell line): < 100 nM
- IC50 (MDA-MB-468): < 50 nM

Compound: CC1=C(/C=C/C(C)=C/C=C/C(C)=C/C(=O)O)C(C)(C)CCC1.COC(=O)C[C@](O)(CCCC(C)(C)O)C(=O)O[C@@H]1C(OC)=C[C@]23CCCN2CCc2cc4c(cc2[C@H]13)OCO4 (relative stereo) [Example 1, homoharringtonine all-trans-retinoate]
- IC50 (K562 cell line): < 50 nM
- IC50 (HL-60 cell line): < 100 nM
- IC50 (MDA-MB-468): < 50 nM

Compound: OP5215 adarotenoate [Example 28]
- IC50 (K562 cell line): < 10 nM
- IC50 (HL-60 cell line): < 20 nM
- IC50 (MDA-MB-468): < 10 nM

Compound: OP5215 bexarotenoate [Example 29]
- IC50 (K562 cell line): < 10 nM
- IC50 (HL-60 cell line): < 20 nM
- IC50 (MDA-MB-468): < 10 nM

Compound: C/C=C/C=C/COC(=O)C[C@](O)(CCCC(C)(C)O)C(=O)O[C@@H]1C(OC)=C[C@]23CCCN2CCc2cc4c(cc2[C@H]13)OCO4 [OP5215]
- antileukemic activity [2]: 5 times

Compound: CC1(C)CC=C(c2cnc3ccccc3c2)c2cc(C(=O)Nc3ccc(C(=O)O)cc3)ccc21.COC(=O)CC(O)(CCCC(C)(C)O)C(=O)O[C@@H]1C(OC)=C[C@]23CCCN2CCc2cc4c(cc2[C@H]13)OCO4 (stereo partly drawn) [Example 10, Butanedioic acid, 2-hydroxy-2-(4-hydroxy-4-methylpentyl)-, 1-[(1S,3aR,14bS)-1,5,6,8,9,14b-hexahydro-2-methoxy-4H-cyclopenta[c][1,3]dioxolo[4,5-h]pyrrolo[2,1-b][3]benzazepin-1-yl]4-methyl ester, 4-[[[5,6-Dihydro-5,5-dimethyl-8-(3-quinolinyl)-2-naphthalenyl]carbonyl]amino]benzoate]
- IC50 (K562 cell line): < 50 nM
- IC50 (HL-60 cell line): < 100 nM
- IC50 (MDA-MB-468): < 50 nM

Compound: COC(=O)CC(O)(CCCC(C)(C)O)C(=O)O[C@@H]1C(OC)=C[C@]23CCCN2CCc2cc4c(cc2[C@H]13)OCO4.O=C(O)c1ccc2cc(-c3ccc(O)c(C45CC6CC(CC(C6)C4)C5)c3)ccc2c1 (stereo partly drawn) [Example 11, Butanedioic acid, 2-hydroxy-2-(4-hydroxy-4-methylpentyl)-, 1-[(1S,3aR,14bS)-1,5,6,8,9,14b-hexahydro-2-methoxy-4H-cyclopenta[a][1,3]dioxolo[4,5-h]pyrrolo[2,1-b][3]benzazepin-1-yl]4-methyl ester, 6-[3-(1-adamantyl)-4-hydroxyphenyl]-2-naphtalenecarboxylate]
- IC50 (K562 cell line): < 50 nM
- IC50 (HL-60 cell line): < 100 nM
- IC50 (MDA-MB-468): < 50 nM

Compound: COC(=O)C[C@](O)(CCCC(C)(C)O)C(=O)O[C@@H]1C(OC)=C[C@]23CCCN2CCc2cc4c(cc2[C@H]13)OCO4.COc1ccc(-c2ccc3cc(C(=O)O)ccc3c2)cc1C12CC3CC(CC(C3)C1)C2 [Example 8, homoharringtonine "adapalenoate"]
- IC50 (K562 cell line): < 50 nM
- IC50 (HL-60 cell line): < 100 nM
- IC50 (MDA-MB-468): < 50 nM
